In patent US20090170914A1, “Cermide Kinase Modulation” (priority 2006, published 2009):

melting point: 160 to 167 °C
Compound: CCCCCCCCCCCCCC(=O)Nc1ccc2nc(NC(=O)c3ccccc3)sc2c1
